Like-named read-outs stand apart in the source and are kept apart here.
Experiments:
PRMT5/MEP50 = PRMT5/MEP50 (Homo sapiens (Human), UniProt O14744); test: PRMT5 Biochemical Assay (PRMT5/MEP50 enzyme assay on peptide substrate, 3H-SAM Flashplate); details: PRMT5/MEP50 4 nM, 3H-SAM 75 nM, peptide 40 nM
Excerpt: S-adenosylmethionine (SAM), S-adenosylhomocysteine (SAH), bicine, KCl, Tween20, dimethylsulfoxide (DMSO), bovine skin gelatin (BSG), and Tris(2-carboxyethyl)phosphine hydrochloride solution (TCEP) were purchased from Sigma-Aldrich at the highest level of purity possible. ^3H-SAM was purchase from American Radiolabeled Chemicals with a specific activity of 80 Ci/mmol. 384-well streptavidin Flashplates were purchased from PerkinElmer.
Peptide representative of human histone H4 residues 1-15 was synthesized with a C-terminal linker-affinity tag motif and a C-terminal amide cap by 21st Century Biochemicals. The peptide was high high-performance liquid chromatography (HPLC) purified to greater than 95% purity and confirmed by liquid chromatography mass spectrometry (LC-MS). The sequence was Ac-[…][K-Biot]-amide (SEQ ID NO.: 3).
Full-length human PRMT5 (NM_006109.3) transcript variant 1 clone was amplified from a fetal brain cDNA library, incorporating flanking 5′ sequence encoding a FLAG tag ([…]) (SEQ ID NO.: 4) fused directly to Ala 2 of PRMT5. Full-length human MEP50 (NM_024102) clone was amplified from a human testis cDNA library incorporating a 5′ sequence encoding a 6-histidine tag (MHHHHHH) (SEQ ID NO.: 5) fused directly to Arg 2 of MEP50. The amplified genes were sublconed into pENTR/D/TEV (Life Technologies) and subsequently transferred by Gateway™ attL x attR recombination to pDEST8 baculvirus expression vector (Life Technologies).
Recombinant baculovirus and Baculovirus-Infected Insect Cells (BIIC) were generated according to Bac-to-Bac kit instructions (Life Technologies) and Wasilko, 2006, respectively. Protein over-expression was accomplished by infecting exponentially growing Spodoptera frugiperda (SF9) cell culture at 1.2×10^6 cell/ml with a 5000 fold dilution of BIIC stock. Infections were carried out at 27° C. for 72 hours, harvested by centrifugation, and stored at −80° C. for purification.
Flag-PRMT5/6His-MeP50 was eluted with 300 mM Imidazole in the same buffer. The purity of recovered protein was 87%. Reference: Wasilko, D. J. and S. E. Lee: “TIPS: titerless infected-cells preservation and scale-up” Bioprocess J., 5 (2006), pp. 29-32.
General Procedure for PRMT5/MEP50 Enzyme Assays on Peptide Substrates.
The assays were all performed in a buffer consisting of 20 mM Bicine (pH=7.6), 1 mM TCEP, 0.005% BSG, and 0.002% Tween20, prepared on the day of use. Compounds in 100% DMSO (1 ul) were spotted into a polypropylene 384-well V-bottom plates (Greiner) using a Platemate Plus outfitted with a 384-channel head (Thermo Scientific). DMSO (1 ul) was added to Columns 11, 12, 23, 24, rows A-H for the maximum signal control and 1 ul of SAH, a known product and inhibitor of PRMT5/MEP50, was added to columns 11, 12, 23, 24, rows I-P for the minimum signal control. A cocktail (40 ul) containing the PRMT5/MEP50 enzyme and the peptide was added by Multidrop Combi (Thermo-Fisher). The compounds were allowed to incubate with PRMT5/MEP50 for 30 min at 25 degrees Celsius, then a cocktail (10 ul) containing ^3H-SAM was added to initiate the reaction (final volume=51 ul). The final concentrations of the components were as follows: PRMT5/MEP50 was 4 nM, ^3H-SAM was 75 nM, peptide was 40 nM, SAH in the minimum signal control wells was 100 uM, and the DMSO concentration was 1%. The assays were stopped by the addition of non-radioactive SAM (10 ul) to a final concentration of 600 uM, which dilutes the ^3H-SAM to a level where its incorporation into the peptide substrate is no longer detectable. 50 ul of the reaction in the 384-well polypropylene plate was then transferred to a 384-well Flashplate and the biotinylated peptides were allowed to bind to the streptavidin surface for at least 1 hour before being washed three times with 0.1% Tween20 in a Biotek ELx405 plate washer. […]

[1] = system: symmetric di-methyl arginine in Z-138 cells; test: Z-138 Methylation Assay (In Cell Western for symmetric di-methyl arginine and DNA content); format: cell-based; details: 96 hours incubation, read-out: ICW EC50
Excerpt: [formula] Where top and bottom are the normally allowed to float, but may be fixed at 100 or 0 respectively in a 3-parameter fit. The Hill Coefficient normally allowed to float but may also be fixed at 1 in a 3-parameter fit. Y is the % inhibition and X is the compound concentration. Z-138 Methylation Assay
Z-138 suspension cells were purchased from ATCC (American Type Culture Collection, Manassas, Va.). RPMI/Glutamax medium, penicillin-streptomycin, heat inactivated fetal bovine serum, and D-PBS were purchased from Life Technologies, Grand Island, N.Y., USA. Odyssey blocking buffer, 800CW goat anti-rabbit IgG (H+L) antibody, and Licor Odyssey infrared scanner were purchased from Licor Biosciences, Lincoln, Nebr., USA. Symmetric di-methyl arginine antibody was purchased from EMD Millipore, Billerica, Mass., USA. 16% Paraformaldehyde was purchased from Electron Microscopy Sciences, Hatfield, Pa., USA.
Z-138 suspension cells were maintained in growth medium (RPMI 1640 supplemented with 10% v/v heat inactivated fetal bovine serum and 100 units/mL penicillin-streptomycin) and cultured at 37° C. under 5% CO2.
Cell Treatment, in Cell Western (ICW) for Detection of Symmetric Di-Methyl Arginine and DNA Content.
Z-138 cells were seeded in assay medium at a concentration of 50,000 cells per mL to a 384-well cell culture plate with 50 μL per well. Compound (100 nL) from 384 well source plates was added directly to 384 well cell plate. Plates were incubated at 37° C., 5% CO2 for 96 hours. After four days of incubation, 40 μL of cells from incubated plates were added to poly-D-lysine coated 384 well culture plates (BD Biosciences 356697). Plates were incubated at room temperature for 30 minutes then incubated at 37° C., 5% CO2 for 5 hours. After the incubation, 40 μL per well of 8% paraformaldehyde in PBS (16% paraformaldahyde was diluted to 8% in PBS) was added to each plate and incubated for 30 minutes. Plates were transferred to a Biotek 405 plate washer and washed 5 times with 100 μL per well of wash buffer (IX PBS with 0.1% Triton X-100 (v/v)). Next 30 μL per well of Odyssey blocking buffer were added to each plate and incubated 1 hour at room temperature. Blocking buffer was removed and 20 μL per well of primary antibody was added (symmetric di-methyl arginine diluted 1:100 in Odyssey buffer with 0.1% Tween 20 (v/v)) and plates were incubated overnight (16 hours) at 4° C. Plates were washed 5 times with 100 μL per well of wash buffer. Next 20 μL per well of secondary antibody was added (1:200 800CW goat anti-rabbit IgG (H+L) antibody, 1:1000 DRAQ5 (Biostatus limited) in Odyssey buffer with 0.1% Tween 20 (v/v)) and incubated for 1 hour at room temperature. The plates were washed 5 times with 100 μL per well wash buffer then 1 time with 100 μL per well of water. Plates were allowed to dry at room temperature then imaged on the Licor Odyssey machine which measures integrated intensity at 700 nm and 800 nm wavelengths. Both 700 and 800 channels were scanned.
First, the ratio for each well was determined by:
Each plate included fourteen control wells of DMSO only treatment (minimum inhibition) as well as fourteen control wells for maximum inhibition treated with 3 μM of a reference compound (Background wells). The average of the ratio values for each control type was calculated and used to determine the percent inhibition for each test well in the plate. Reference compound was serially diluted three-fold in DMSO for a total of nine test concentrations, beginning at 3 μM. Percent inhibition was determined and IC50 curves were generated using triplicate wells per concentration of compound. […]

Z-138 cells = test: Z-138 Proliferation Assay (Cell Titer Glo); format: cell-based; details: Homo sapiens, 120 h, 5 days incubation
Excerpt: [formula] Z-138 Proliferation Assay
Z-138 suspension cells were purchased from ATCC (American Type Culture Collection, Manassas, Va.). RPMI/Glutamax medium, penicillin-streptomycin, heat inactivated fetal bovine serum were purchased from Life Technologies, Grand Island, N.Y., USA. V-bottom polypropylene 384-well plates were purchased from Greiner Bio-One, Monroe, N.C., USA. Cell culture 384-well white opaque plates were purchased from Perkin Elmer, Waltham, Mass., USA. Cell-Titer Glo® was purchased from Promega Corporation, Madison, Wis., USA. SpectraMax M5 plate reader was purchased from Molecular Devices LLC, Sunnyvale, Calif., USA.
Z-138 suspension cells were maintained in growth medium (RPMI 1640 supplemented with 10% v/v heat inactivated fetal bovine serum and cultured at 37° C. under 5% CO2. Under assay conditions, cells were incubated in assay medium (RPMI 1640 supplemented with 10% v/v heat inactivated fetal bovine serum and 100 units/mL penicillin-streptomycin) at 37° C. under 5% CO2.
For the assessment of the effect of compounds on the proliferation of the Z-138 cell line, exponentially growing cells were plated in 384-well white opaque plates at a density of 10,000 cells/ml in a final volume of 50 μl of assay medium. A compound source plate was prepared by performing triplicate nine-point 3-fold serial dilutions in DMSO, beginning at 10 mM (final top concentration of compound in the assay was 20 μM and the DMSO was 0.2%). A 100 nL aliquot from the compound stock plate was added to its respective well in the cell plate. […] After addition of compounds, assay plates were incubated for 5 days at 37° C., 5% CO2, relative humidity >90%.
Cell viability was measured by quantitation of ATP present in the cell cultures, adding 35 μl of Cell Titer Glo® reagent to the cell plates. Luminescence was read in the SpectraMax M5 microplate reader. The concentration of compound inhibiting cell viability by 50% was determined using a 4-parametric fit of the normalized dose response curves.

Sequence of PRMT5/MEP50 (O14744 other isoform, or with tags, fused parts or gaps): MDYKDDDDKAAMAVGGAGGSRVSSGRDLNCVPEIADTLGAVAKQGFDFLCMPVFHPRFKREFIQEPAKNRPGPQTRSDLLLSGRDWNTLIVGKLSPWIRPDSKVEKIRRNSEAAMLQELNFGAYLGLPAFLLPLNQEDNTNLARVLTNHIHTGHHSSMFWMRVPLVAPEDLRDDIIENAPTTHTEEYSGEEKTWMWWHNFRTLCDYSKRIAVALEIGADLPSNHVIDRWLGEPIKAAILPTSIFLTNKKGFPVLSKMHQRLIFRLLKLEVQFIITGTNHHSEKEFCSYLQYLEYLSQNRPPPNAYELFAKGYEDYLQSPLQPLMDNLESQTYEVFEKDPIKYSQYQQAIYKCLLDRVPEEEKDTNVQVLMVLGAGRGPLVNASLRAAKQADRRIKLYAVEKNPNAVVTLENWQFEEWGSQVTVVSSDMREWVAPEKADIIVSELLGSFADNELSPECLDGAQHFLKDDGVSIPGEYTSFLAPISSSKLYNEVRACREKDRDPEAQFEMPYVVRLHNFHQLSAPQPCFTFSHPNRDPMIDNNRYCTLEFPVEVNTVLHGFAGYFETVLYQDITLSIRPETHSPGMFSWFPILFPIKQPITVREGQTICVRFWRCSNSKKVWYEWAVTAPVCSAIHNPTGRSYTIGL
Sequence of PRMT5/MEP50 (Q9BQA1 other isoform, or with tags, fused parts or gaps partner): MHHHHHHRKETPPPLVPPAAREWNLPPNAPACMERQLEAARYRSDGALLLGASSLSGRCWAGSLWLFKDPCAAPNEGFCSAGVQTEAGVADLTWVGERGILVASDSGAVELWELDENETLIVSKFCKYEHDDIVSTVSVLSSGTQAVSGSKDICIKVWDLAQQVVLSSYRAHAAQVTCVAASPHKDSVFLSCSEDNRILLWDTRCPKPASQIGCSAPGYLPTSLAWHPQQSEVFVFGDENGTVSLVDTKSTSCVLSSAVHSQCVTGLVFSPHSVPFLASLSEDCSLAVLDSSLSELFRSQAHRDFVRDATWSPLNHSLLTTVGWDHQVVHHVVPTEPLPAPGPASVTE

IC50 (PRMT5/MEP50) [nM]	EC50 ([1]; Homo sapiens) [nM]	EC50 [1] [nM]	Compound	EC50 (Z-138 cells) [nM]
101 to 1000		101 to 1000	2-(2-(1H-pyrazol-3-yl)phenoxy)-N-(2-hydroxy-3-(isoindolin-2-yl)propyl)acetamide [compound 8]	
	1000 to 10000		O=C(NC[C@H](O)CN1Cc2ccccc2C1)c1cncc(NC2CCNC2)c1 (some centres unmarked) [compound 32]	> 20000
> 10000			O=C(NCCCN1Cc2ccccc2C1)c1cc(NC2COC2)ncn1 [compound 52]	
	101 to 1000		CN(C)S(=O)(=O)c1ccccc1OCC(=O)NC[C@@H](O)CN1Cc2ccccc2C1 [compound 21]	> 20000
1000 to 10000			tert-butyl (3-((2-hydroxy-3-(isoindolin-2-yl)propyl)carbamoyl)phenyl)carbamate [compound 2]	
1000 to 10000			CC(=O)N1CC(Nc2cc(C(=O)NC[C@H](O)CN3CCc4ccccc43)ncn2)C1 [compound 41]	10000 to 50000
	101 to 1000		O=C(NC[C@H](O)CN1Cc2ccccc2C1)c1ccnc(NC2CCOCC2)c1 [compound 30]	1000 to 10000
	1000 to 10000		Cn1ncc2ccc(OCC(=O)NC[C@H](O)CN3Cc4ccccc4C3)cc21 [compound 27]	> 20000
1000 to 10000	> 1000		CC(=O)N1CCC(Nc2cc(C(=O)NC[C@H](O)CN3CCCc4ccccc4C3)ccn2)CC1 [compound 53]	
	1000 to 10000		CN1CCOc2cccc(OCC(=O)NC[C@@H](O)CN3Cc4ccccc4C3)c21 [compound 22]	
> 10000			CC(=O)N1CCC(Nc2cc(C(=O)NC[C@H](O)CN3CCCCc4ccccc43)ccn2)CC1 [compound 51]	
< 100			CC(=O)N1CCC(Nc2cc(C(=O)NC[C@H](O)CN3Cc4ccccc4C3)ncn2)CC1 [compound 39]	101 to 1000
> 10000			N-(2-hydroxy-3-(isoindolin-2-yl)propyl)-3-((tetrahydro-2H-pyran-4-yl)amino)benzamide [compound 6]	
	1000 to 10000		O=C(NC[C@H](O)CN1Cc2ccccc2C1)c1cncc(OC2CCOCC2)c1 [compound 31]	

Compound	IC50 (PRMT5/MEP50) [nM]	EC50 ([1]; Homo sapiens) [nM]	EC50 [1] [nM]	EC50 (Z-138 cells) [nM]
O=C(COc1cccc2cccnc12)NC[C@@H](O)CN1Cc2ccccc2C1 [compound 16, (R)—N-(2-hydroxy-3-(isoindolin-2-yl)propyl)-2-(quinolin-8-yloxy)acetamide]	1000 to 10000			
CC(C)(C)OC(=O)Nc1cccc(C(=O)NCC(O)CN2Cc3ccccc3C2)c1 (centres unmarked) [compound 11, tert-butyl (3-((2-hydroxy-3-(isoindolin-2-yl)propyl)carbamoyl)phenyl)carbamate]	101 to 1000	1000 to 10000		
COc1ccc(Cn2cnc3ccc(-c4ccc(OCC(O)CN5Cc6ccccc6C5)cc4)cc32)cc1 (centres unmarked) [compound 18]	1000 to 10000			
O=C(NC[C@@H](O)CN1Cc2ccccc2C1)c1cccc(NC2CCOCC2)c1 [compound 24]	< 100			
OC(COc1cccc(CNC2CCCC2)c1)CN1Cc2ccccc2C1 (centres unmarked) [compound 20, 1-(3-((cyclopentylamino)methyl)phenoxy)-3-(isoindolin-2-yl)propan-2-ol]	1000 to 10000			10000 to 50000
CS(=O)(=O)c1ccccc1OCC(=O)NCC(O)CN1Cc2ccccc2C1 (centres unmarked) [compound 12, N-(2-hydroxy-3-(isoindolin-2-yl)propyl)-2-(2-(methylsulfonyl)phenoxy)acetamide]	101 to 1000	101 to 1000		
Cn1cnc2ccc(-c3cccc(OCC(O)CN4Cc5ccccc5C4)c3)cc21 (centres unmarked) [compound 9, 1-(isoindolin-2-yl)-3-(3-(1-methyl-1H-benzo[d]imidazol-6-yl)phenoxy)propan-2-ol]	1000 to 10000			
